# From US20250134895A1, “METHODS AND COMPOSITIONS FOR TREATING ALPHA-SYNUCLEIN-MEDIATED NEURODEGENERATION” (UNIVERSITY HEALTH NETWORK, priority 2021, published 2025)
# Key:
# [1] = tested on: transgenic A30P α-synuclein C. elegans; experiment: Coiler score and locomotion of C. elegans expressing A30P α-synuclein in dopaminergic neurons; type: in vivo, Caenorhabditis elegans
# Method: Using high-resolution, multi-worm tracking with custom image processing, methods were developed for semi-automated and blinded scoring of circularity for a population of simultaneously recorded animals (n=10 per recording). A coiler score was determined for the population tested by first calculating the circularity value for each animal in each frame of video and then calculating the proportion of circularity values >0.6. […] The coiler phenotype is an abnormal motor behaviour previously reported for several unc C. elegans strains with mutations affecting neuronal function.
# Animals were synchronized by isolating eggs using alkaline hypochlorite treatment and hatching overnight. Larvae were plated onto NGM agar plates with OP50 and grown for 4 days before recording locomotion. For individual C. elegans recordings, a single adult animal was randomly picked, washed for 1 to 2 minutes in M9 buffer, and then transferred to a fresh NGM plate without food for imaging. Video images were acquired (2 frames per second) for up to 6 minutes using a sCMOS camera (pco.edge, PCO) mounted on a stereomicroscope (Olympus MVX10 MacroView) controlled using the μManager software.^55 A total of 40 individual animals were imaged for each strain. For C. elegans population recordings, ten adult animals were randomly removed using an eyelash pick, washed for 1 minute in M9 buffer, and then transferred to a fresh NGM plate without food, with a ring of copper sulfate solution (150 mM) around the area of recording (a chemorepellent to keep the animals in the recording frame). Exploratory locomotion was recorded using a CCD camera (GX1920, Allied Vision) which was attached to a dissecting stereomicroscope (Leica M165C, 1.0× PlanApo lens). A Labview program captured video (2 frames per second) at 1936×1456 resolution. Using ImageJ, the displacement, perimeter, and area of each animal was calculated, from which a circularity value was computed using the following formula: circularity=4π(A/P^2), where A is the area of the animal's body and P is the perimeter of the animal's body (both expressed in arbitrary pixel units). […] Using MATLAB (Mathworks), various behavioural metrics including the coiler score were calculated, which is the percentage of frames with a circularity value >0.6. Speed was automatically computed from the ImageJ based WrmTrk plugin as the distance travelled by each animal (in pixels) over the amount of time that it was tracked (in seconds).56 Average speed was determined by calculating the weighted average of each tracked animal's speed within a single population of animals. On the day of the recording for dopamine or raclopride treatment, adult animals were washed for 1 minute in M9 buffer, treated in a solution containing either drug for 1 minute, and then placed onto fresh NGM plates without food, with a copper sulfate solution ring around the area of recording. […] Drug plates were prepared by adding each drug to LB medium with OP50 before spreading onto fresh NGM plates. The solvent used to dissolve each drug was used as vehicle control for the drug treatment experiments (M9 buffer for dopamine, distilled water for raclopride, DMSO for all other drugs).
# After 72 hours of drug treatment, animals were randomly picked, washed, and recorded. A total of ten worms were recorded per population, and twelve populations were recorded for each of the four treatment groups. Locomotion was recorded for each population over a total of 1800 frames over three minutes. The animal's movement speed, area, and perimeter were automatically analyzed as previously described. Coiler score was calculated automatically using a ratio of the animal's area to perimeter, where a higher coiler score would represent a greater degree of α-synuclein-induced dopaminergic neuron dysfunction in vivo.
# [2] = tested on: α-synuclein protein; experiment: Immunoblot for α-synuclein protein in lysates of treated C. elegans; type: in vivo, Caenorhabditis elegans; settings: 50 μM
# From the text: The chaperone system is composed of chaperone proteins, such as HSP70 (heat shock protein 70), and co-chaperones. Together, these proteins are integral to maintaining cellular protein quality control by folding newly translated polypeptides into their native conformation, refolding misfolded proteins to prevent their aggregation, and targeting proteins to degradation pathways, such as the autophagy-lysosomal system or ubiquitin-proteasome system, when refolding is unsuccessful. From the above in vitro findings, it was predicted that perturbations to the chaperone system in vivo would affect coiling of the transgenic α-synuclein C. elegans. To test this prediction, we treated the animals were treated with the geldanamycin analogue, 17-(allylamino)-17-demethoxygeldanamycin (17-AAG). […]
# Synchronized animals (4 or 5 days old) were lysed in 0.5X Tris-HCl buffer with 0.5% Triton X-100 at 100° C. for 5 minutes and then passed through a 23-gauge needle 10 times. […] Protein concentration was determined with a Bio-Rad Lowry protein assay (Bio-RAD, 5000116) according to the manufacturer's instructions. […] Beads were washed and samples were analysed by immunoblotting and mass spectrometry (see below). […] Signals were detected with ECL (ThermoFisher, 32132) and developed on HyBlot CL autoradiography film (DV-E3018).
# [3] = biological target: T1, α-synuclein oligomers (Homo sapiens, UniProt P37840); experiment: Venus YFP protein-fragment complementation assay in rat primary cortical neurons; type: cell-based; settings: 72 hours; losartan 100 μM, rapamycin 50 nM, rifabutin 20 μM
# Method: Specifically, adeno-associated viral vectors (AAV) were used to co-express human α-synuclein tagged with the N- or C-terminal half of Venus yellow fluorescent protein (YFP) in rat cortical neurons.
# Pregnant Sprague Dawley rats (E17) were purchased from Charles River. Embryos were surgically removed, and neurons were harvested in a sterile environment. Neurons were plated on poly-D-lysine coated glass coverslips at a density of 5×10^5 cells per well in Neurobasal-A medium, (Gibco, 10888022) supplemented with B27 (2%) (Gibco, 17504044), antibiotic-antimycotic (1%) (Gibco, 15240062), and Glutamax (1%) (Gibco, 35050061). Fifty percent media changes were performed every 3 days. […] Two days post isolation, neurons were co-transduced with AAV-V1 S and AAV-SV2 or transduced with AAV-Venus alone at a MOI of 3,000. […] Concentrations were selected to avoid neuron toxicity according to previous reports.^57-61 Drug-containing media was removed, and cells were washed 1 time with ice-cold PBS before being fixed with 4% PFA (Sigma) at room temperature for 10 minutes. Levels of α-synuclein oligomers were measured by YFP fluorescence. […] YFP fluorescence intensity was analysed automatically using Imaris imaging software (Oxford Instruments). […]
# [4] = biological target: T1, α-synuclein oligomers; experiment: Immunoblot of crosslinked split YFP-tagged α-synuclein oligomers in rat primary cortical neuron lysates; type: cell-based; parameters: full-length human α-synuclein fused to the N-terminal fragment of Venus YFP (V1 S); full-length human α-synuclein fused to the C-terminal fragment of Venus YFP (SV2); host or cells: rat (Sprague Dawley, E17) primary cortical neurons, AAV co-transduction; settings: losartan 100 μM, rapamycin 50 nM, rifabutin 20 μM
# Method: FIGS. 7A-7E. […] (a) Five positive hits were tested for their ability to reduce α-synuclein oligomer levels in rat primary cortical neurons measured with YFP-based protein-fragment complementation. […] Fluorescence intensity was analyzed using Imaris image analysis software by measuring the mean fluorescence intensity of α-synuclein positive neurons throughout a 3D field of view generated by z-stack image acquisition using the “surfaces” module. The value generated for each neuron was normalized to the mean fluorescence intensity of neurons treated with vehicle alone (N=3-4 replicates of n=10 fields of view for each treatment; each data point represents an individual replicate) (nested one-way ANOVA with Dunnett's post-hoc test, *p<0.05, *** p<0.001). […] Bottom: Representative fluorescent microscopy images of neurons treated with vehicle, losartan, rapamycin, or rifabutin and expressing YFP alone. Scale bars are […]. (e) Representative immunoblot to detect oligomers of split YFP-tagged α-synuclein (crosslinked) in rat primary cortical neuron lysates (actin used as a loading control).
# Finally, it was examined whether these 5 compounds that had effects in our invertebrate C. elegans model reduce α-synuclein oligomers and α-synuclein-mediated dopaminergic neurodegeneration in mammalian systems.
# [5] = tested on: H4 neuroglioma cells
# Method: (§1) For controls in this assay, vehicle (i.e., DMSO), rapamycin, and bafilomycin A were used. Rapamycin, or sirolimus, is a small molecule that activates autophagy by inhibiting mTOR (mammalian target of rapamycin). […] To test this possibility, cells expressing α-synuclein were treated with each of the compounds and a cell permeable, resazurin-based assay was used to test for cell viability.
# (§2) H4 neuroglioma cells (ATCC, HTB-148) were maintained in Dulbecco's Modified Eagle Medium plus high glucose, L-glutamine, and sodium pyruvate (ThermoFisher, 11995-065) with 10% heat-inactivated fetal bovine serum (ThermoFisher, 16140071) and 1% antibiotic-antimycotic cocktail (ThermoFisher, 15240062) at 37° C. and 5% CO2. DNA expression constructs encoding for full-length human α-synuclein fused to the N-terminal fragment of Gaussia princeps luciferase (syn-luc1), full-length human α-synuclein fused to the C-terminal fragment of Gaussia princeps luciferase (syn-luc2), and full-length Gaussia princeps luciferase were kindly provided by Dr. Pamela McLean, Mayo Clinic Jacksonville.^33 Cells were transiently co-transfected with syn-luc1 and syn-luc2 or transfected with luciferase alone using Superfect transfection reagent (Qiagen, 301305) according to the manufacturer's instructions. Twenty-four hours after transfection, cells were plated on a 96-well microplate at 60,000 cells per well. Twenty-four hours after plating, cells were treated with drugs or vehicle control. Following 24 hours of treatment, cells were washed 1 time with PBS and bioluminescence was measured using an automated CLARIOstar plate reader (Mandel, 430-0505). Cell permeable, native coelenterazine was used as the Gaussia luciferase substrate. Lyophilized coelenterazine (Nanolight, 303-500) was reconstituted in NanoFuel Solvent (Nanolight, 399-1), then diluted in PBS to 16.6 μg/mL, and dispensed per well to a final concentration of 20 μM). The bioluminescent signal generated by the luciferase enzyme was assessed at 470 nm over 5 seconds. Raw luminescence units were normalized to the DMSO vehicle control of each 96-well microplate. To assess cell viability, H4 neuroglioma cells were prepared and treated as described above and, 1 hour prior to viability analysis, cells were treated with PrestoBlue viability reagent (ThermoFisher, A13261) according to the manufacturer's instructions. Fluorescence was automatically measured using a CLARIOstar plate reader (Mandel, 430-0505) and then normalized to the fluorescence measure of the DMSO vehicle control.
# [6] = tested on: full-length Gaussia princeps luciferase; experiment: Activity of full-length Gaussia luciferase alone in H4 cells; type: cell-based; settings: Example 5, FIG. 5c
# Method: as §1, §2
# [7] = biological target: T1, α-synuclein oligomers; experiment: Gaussia luciferase protein-fragment complementation cell assay of α-synuclein oligomers in H4 neuroglioma cells; type: cell-based; parameters: full-length human α-synuclein fused to the N-terminal fragment of Gaussia princeps luciferase (syn-luc1); full-length human α-synuclein fused to the C-terminal fragment of Gaussia princeps luciferase (syn-luc2); expressed in transfected cells; host or cells: H4 neuroglioma cells (ATCC, HTB-148), transient co-transfection; settings: 1 μM or 10 μM, 24 hours of treatment
# Method: as §1, §2
# We used a bioluminescent protein-fragment complementation assay in which human H4 neuroglioma cells co-express human α-synuclein tagged with the N- or C-terminal half of Gaussia princeps luciferase (FIG. 12). Reconstitution of a complete and active luciferase molecule from the fragments occurs upon α-synuclein oligomerization, and so luminescence provides an indirect measure of α-synuclein oligomer levels. H4 neuroglioma cells were co-transfected with α-syn luciferase fragments, and constructs were plated into a 96-well plate and treated with either 1 μM or 10 μM of each of the 19 drug compounds.
# [8] = tested on: control GFP C. elegans; experiment: Coiler score and locomotion of control GFP C. elegans; type: in vivo, Caenorhabditis elegans; settings: 1 mM, animals not expressing α-synuclein
# Method: Animals were synchronized by isolating eggs using alkaline hypochlorite treatment and hatching overnight. Larvae were plated onto NGM agar plates with OP50 and grown for 4 days before recording locomotion. For individual C. elegans recordings, a single adult animal was randomly picked, washed for 1 to 2 minutes in M9 buffer, and then transferred to a fresh NGM plate without food for imaging. Video images were acquired (2 frames per second) for up to 6 minutes using a sCMOS camera (pco.edge, PCO) mounted on a stereomicroscope (Olympus MVX10 MacroView) controlled using the μManager software.^55 A total of 40 individual animals were imaged for each strain. For C. elegans population recordings, ten adult animals were randomly removed using an eyelash pick, washed for 1 minute in M9 buffer, and then transferred to a fresh NGM plate without food, with a ring of copper sulfate solution (150 mM) around the area of recording (a chemorepellent to keep the animals in the recording frame). Exploratory locomotion was recorded using a CCD camera (GX1920, Allied Vision) which was attached to a dissecting stereomicroscope (Leica M165C, 1.0× PlanApo lens). […] Using ImageJ, the displacement, perimeter, and area of each animal was calculated, from which a circularity value was computed using the following formula: circularity=4π(A/P^2), where A is the area of the animal's body and P is the perimeter of the animal's body (both expressed in arbitrary pixel units). […] Using MATLAB (Mathworks), various behavioural metrics including the coiler score were calculated, which is the percentage of frames with a circularity value >0.6. Speed was automatically computed from the ImageJ based WrmTrk plugin as the distance travelled by each animal (in pixels) over the amount of time that it was tracked (in seconds).56 Average speed was determined by calculating the weighted average of each tracked animal's speed within a single population of animals. […]
# C. elegans were grown and maintained as previously described (Examples 1-6). […] After 72 hours of drug treatment, animals were randomly picked, washed, and recorded. […]
smiles,measurement,setting,value
"C=CCNC1=C2C[C@@H](C)C[C@H](OC)[C@H](O)[C@@H](C)/C=C(\C)[C@H](OC(N)=O)[C@@H](OC)/C=C\C=C(/C)C(=O)NC(=CC1=O)C2=O [17-AAG, 17-(allylamino)-17-demethoxygeldanamycin]",reduced coiling compared with vehicle control,[1]; 50 μM,51%
same,α-synuclein protein levels,[2],lower
"CCCCc1nc(Cl)c(CO)n1Cc1ccc(-c2ccccc2-c2nnn[nH]2)cc1 [Losartan, losartan]",decrease in fluorescence compared with vehicle alone,[3],33%
same,α-synuclein oligomers as detected by immunoblotting,[4],reduction
same,changes in viability,[5],No statistically significant changes
same,changes in the activity of full-length Gaussia luciferase alone,[6],No statistically significant changes
same,reduction in coiling compared with vehicle alone (decrease),"[1]; 100 μM of drug, 3 days on drug plates",45%
same,decrease in luciferase activity compared with vehicle alone,[7],16%
"CCN1CCC[C@H]1CNC(=O)c1c(O)c(Cl)cc(Cl)c1OC [Raclopride, raclopride]",coiling after D2 receptor blockade,[8],recapitulated the coiling behaviour
